Measured values: US20240197643A1, “ORAL DELIVERY OF NANOPARTICLES FOR KIDNEY DISEASE” (UNIVERSITY OF SOUTHERN CALIFORNIA, priority 2020, published 2024)
Values after ≈ are worked out from the molar mass of the structure shown. Where two headings read alike, the source gives them in different places. Values belong to the compound of their own block, whether it stands above or below them.

Legend:
[1] = system: cortical collecting duct (CCD); details: identified in the literature; cited from earlier work
[2] = cited from earlier work
[3] = Serum fluorescence and absolute bioavailability after oral gavage; assay type: in vivo, C57BL/6 J mice; details: oral gavage 10 mg/kg rhodamine, relative to IV
Procedure: Blood draws were performed either retro-orbitally or via tail vein at 30 min, 3, 6, 12, 24, 36, and 48 h post-administration. Fluorescence was measured in serum and quantified using a rhodamine calibration curve developed in mouse serum.

[4] = Ex vivo imaging of orally administered CS-NP; assay type: in vivo, C57BL/6 J mice; details: oral gavage 10 mg/kg rhodamine
Procedure: To assess the biodistribution of CS-NP semi-quantitatively, 6-7 week old male and female C57BL/6 J mice (Jackson Laboratories, Bar Harbor, ME, USA) were orally gavaged with 10 mg/kg of rhodamine loaded in 200 μL of 500 μM CS-NP R, 10 mg/kg of free R, or PBS control. Mice were euthanized after 3, 24, or 48 h […] and organs (e.g., brain, heart, lungs, liver, kidneys, spleen, intestines, and bladder) were excised and imaged ex vivo on an AMI HTX in vivo imaging system (Spectral Instruments Imaging, Tucson, AZ, USA). The fluorescence signal was quantified via Aura software (Spectral Instruments Imaging, Tucson, AZ, USA, N ≥4), and the background was subtracted from the PBS treated group. The mean radiance (photons/s/cm2/sr) for each organ was quantified as a region of interest, and % of total organ fluorescence was obtained by dividing each organ by the sum of all the organ regions. Urine and blood samples were collected following organ harvest and stored at −20° C. until further analysis. All animal procedures followed NIH guidelines for the care and use of laboratory animals and were approved by the University of Southern California's Institutional Animal Care and Use Committee.

[5] = Histology and intestinal localization after oral gavage; assay type: in vivo, C57BL/6 J mice; details: 24 h after oral gavage
From the text: Following ex vivo imaging, the brain, heart, lungs, liver, kidneys, spleen, intestines, and bladder were immediately frozen and embedded in OCT (Tissue Tek, Sakura Finetek, Torrance, CA, USA). 10 μm sections were obtained (CM3050 S Cryostat, Leica, Nussloch, Germany) and placed on Superfrost Plus slides (Fisherbrand, Waltham, MA, USA). Tissue sections were stained with hematoxylin & eosin (H&E) and imaged (Leica DMi8, Leica, Wetzlar, Germany, N=3). For staining of intestinal mucin, tissue sample were processed with an alcian blue 1%, pH 2.5 stain kit (Newcomer Supply, Middleton, WI, USA). Briefly, tissue sections on slides were washed in acetic acid for 3 min, incubated in alcian blue for 30 min at 4° C. in a humidified chamber, and counterstained with Nuclear Fast Red (Vector Laboratories, Burlingame, CA, USA). Samples were mounted using VectaMount™ (Vector Laboratories, Burlingame, CA, USA).

Caco-2 cell monolayers = test: Transepithelial resistance (TER) surveillance; assay type: cell-based, Human; details: up to 3 days after administration
Procedure: For transport and monolayer resistance experiments, Caco-2 cell monolayers were seeded onto Transwell inserts (Corning, NY, USA; diameter 6.5 mm, growth area 0.33 cm^2, pore size 0.4 μm), at an initial density of 3×10^5 cell/cm2 and maintained for 21 days in complete medium to form a confluent monolayer. The change of TER, representing the tightness of the cell monolayers, was measured by an EVOM2 Epithelial Voltohmmeter (World Precision Instruments, USA). Monolayers reaching steady-state values in the range of 300-400 Ω-cm^2 were used for studies.
Additionally, the effect of paracellular transport through tight junctions was monitored via TER of Caco-2 cells seeded on Transwell inserts. TER measurements were performed daily for three days prior to treatment with CS-NP R, free Rhodamine (free R), or PBS control to establish baseline measurements. TER was monitored every 6 h, then again on day 2 and 3 post-administration.

Caco-2 cells = test: Cellular uptake and transport of CS-NP with pathway inhibitors; assay type: in vitro ADME, Human; details: same conditions as CS-NP R
Procedure: To assess the cellular uptake pathways of chitosan nanoparticles, Caco-2 cells were pretreated with medium containing colchicine (transcytosis inhibitor, 10 μM, for 60 min) or wortmannin (macropinocytosis inhibitor, 0.06 mM, for 3 h) before 100 μL of 100 μM rhodamine-loaded chitosan nanoparticles (CS-NP R) was administered in the apical chamber. The amount of rhodamine fluorescence was measured in the basolateral chamber over the course of 4 h.

megalin (mouse) = megalin (mouse) (UniProt A2ARV4); test: confocal immunohistochemistry of mouse kidney sections 24 h after i.v. injection; colocalization of Cy7 micelle signal with anti-megalin Alexa Fluor 488 signal (ImageJ coloc2)
Solubility in MQ = assay type: physicochemical; details: MQ (water)
[6] = human, in vivo, cited from earlier work
AMPK = test: Transwell intestinal cell model, pAMPK/AMPK ELISA of basolateral mpkCCDc14; assay type: cell-based; details: 300 μM, up to 48 h, across Caco2 monolayer on transwell insert
From the text: FIG. 17A provides a transwell schematic of mpkCCDc14 cell monolayers, with a Caco2 cell monolayer seeded on the transwell insert. […] Chitosan Disrupts Intestinal Tight Junctions.

[7] = Kidney health in PKD mice (i-Stat Chem-8+); assay type: in vivo, Pkd1fl/fl; Pax8 rtTA; Tet-O-Cre mice; details: day of harvest
Procedure: Serum components, electrolytes, and kidney health markers including sodium (Na), potassium (K), chloride (Cl), ionized calcium (iCa), total carbon dioxide (tCO2), glucose (Glu), blood urea nitrogen (BUN)/Urea, creatinine (Crea), hematocrit (Hct), hemoglobin (Hb), and anion gap (AnGap) were assessed in diseased Pkd1fl/fl; Pax8 rtTA; Tet-OCre mice. 90 μL of blood taken from the submandibular vein on the day of harvest was analyzed using Chem-8+ cartridges for the i-Stat Handheld Blood Analyzer (Abbott, Chicago, IL, USA).

[8] = system: epithelial sodium channel (ENaC); test: ENaC current measurement in mpkCCDc14 monolayers; assay type: cell-based, Mouse; details: after 48 h, mpkCCDc14 cells, 300 μM met
Procedure: To validate the therapeutic efficacy of met on the reduction of ENAC current, TER and potential difference (PD) measurements were made on mpkCCDc14 cells seeded on Transwell filters as described above. ENaC-dependent equivalent short-circuit currents (leq) was estimated by Ohm's law, dividing the measured PD by the TER value and the area of one Transwell membrane (0.33 cm2). mpkCCDc14 cell cultures were treated with 100 μL CS-NP met (300 μM met), CS-NP, or PBS at pH 7.4.

[9] = human, in vivo; cited from earlier work
[10] = Encapsulation study of everolimus or rapamycin in micelles; assay type: physicochemical
Procedure: Micelles were assembled by dissolving DSPE-PEG(2000)-methoxy in methanol at 100 μM with either everolimus or rapamycin at different lipid:drug molar ratios (2:1, 5:1, 10:1, 20:1), mixing the components, and evaporating the organic solvent under nitrogen. The resulting film was dried under vacuum over night, and then hydrated at 80° C. for 30 min in water and allowed to cool to room temperature overnight before DLS and TEM analysis. DLS measurements were determined at 90° and 637 nm using a Malvern Zetasizer. Free drug was separated by syringe filtering micelles using PTFE syringe filter, pore size 0.1 μm. To calculate encapsulation efficiency and drug loading, micelles were disrupted using DMSO and encapsulated drug was quantified by reading absorbance at 278 nm in a UV Greiner 96-well plate.

[11] = DSPE-PEG(2000)-methoxy:drug molar ratio 2:1

Chain of megalin (mouse) (A2ARV4 26-4660): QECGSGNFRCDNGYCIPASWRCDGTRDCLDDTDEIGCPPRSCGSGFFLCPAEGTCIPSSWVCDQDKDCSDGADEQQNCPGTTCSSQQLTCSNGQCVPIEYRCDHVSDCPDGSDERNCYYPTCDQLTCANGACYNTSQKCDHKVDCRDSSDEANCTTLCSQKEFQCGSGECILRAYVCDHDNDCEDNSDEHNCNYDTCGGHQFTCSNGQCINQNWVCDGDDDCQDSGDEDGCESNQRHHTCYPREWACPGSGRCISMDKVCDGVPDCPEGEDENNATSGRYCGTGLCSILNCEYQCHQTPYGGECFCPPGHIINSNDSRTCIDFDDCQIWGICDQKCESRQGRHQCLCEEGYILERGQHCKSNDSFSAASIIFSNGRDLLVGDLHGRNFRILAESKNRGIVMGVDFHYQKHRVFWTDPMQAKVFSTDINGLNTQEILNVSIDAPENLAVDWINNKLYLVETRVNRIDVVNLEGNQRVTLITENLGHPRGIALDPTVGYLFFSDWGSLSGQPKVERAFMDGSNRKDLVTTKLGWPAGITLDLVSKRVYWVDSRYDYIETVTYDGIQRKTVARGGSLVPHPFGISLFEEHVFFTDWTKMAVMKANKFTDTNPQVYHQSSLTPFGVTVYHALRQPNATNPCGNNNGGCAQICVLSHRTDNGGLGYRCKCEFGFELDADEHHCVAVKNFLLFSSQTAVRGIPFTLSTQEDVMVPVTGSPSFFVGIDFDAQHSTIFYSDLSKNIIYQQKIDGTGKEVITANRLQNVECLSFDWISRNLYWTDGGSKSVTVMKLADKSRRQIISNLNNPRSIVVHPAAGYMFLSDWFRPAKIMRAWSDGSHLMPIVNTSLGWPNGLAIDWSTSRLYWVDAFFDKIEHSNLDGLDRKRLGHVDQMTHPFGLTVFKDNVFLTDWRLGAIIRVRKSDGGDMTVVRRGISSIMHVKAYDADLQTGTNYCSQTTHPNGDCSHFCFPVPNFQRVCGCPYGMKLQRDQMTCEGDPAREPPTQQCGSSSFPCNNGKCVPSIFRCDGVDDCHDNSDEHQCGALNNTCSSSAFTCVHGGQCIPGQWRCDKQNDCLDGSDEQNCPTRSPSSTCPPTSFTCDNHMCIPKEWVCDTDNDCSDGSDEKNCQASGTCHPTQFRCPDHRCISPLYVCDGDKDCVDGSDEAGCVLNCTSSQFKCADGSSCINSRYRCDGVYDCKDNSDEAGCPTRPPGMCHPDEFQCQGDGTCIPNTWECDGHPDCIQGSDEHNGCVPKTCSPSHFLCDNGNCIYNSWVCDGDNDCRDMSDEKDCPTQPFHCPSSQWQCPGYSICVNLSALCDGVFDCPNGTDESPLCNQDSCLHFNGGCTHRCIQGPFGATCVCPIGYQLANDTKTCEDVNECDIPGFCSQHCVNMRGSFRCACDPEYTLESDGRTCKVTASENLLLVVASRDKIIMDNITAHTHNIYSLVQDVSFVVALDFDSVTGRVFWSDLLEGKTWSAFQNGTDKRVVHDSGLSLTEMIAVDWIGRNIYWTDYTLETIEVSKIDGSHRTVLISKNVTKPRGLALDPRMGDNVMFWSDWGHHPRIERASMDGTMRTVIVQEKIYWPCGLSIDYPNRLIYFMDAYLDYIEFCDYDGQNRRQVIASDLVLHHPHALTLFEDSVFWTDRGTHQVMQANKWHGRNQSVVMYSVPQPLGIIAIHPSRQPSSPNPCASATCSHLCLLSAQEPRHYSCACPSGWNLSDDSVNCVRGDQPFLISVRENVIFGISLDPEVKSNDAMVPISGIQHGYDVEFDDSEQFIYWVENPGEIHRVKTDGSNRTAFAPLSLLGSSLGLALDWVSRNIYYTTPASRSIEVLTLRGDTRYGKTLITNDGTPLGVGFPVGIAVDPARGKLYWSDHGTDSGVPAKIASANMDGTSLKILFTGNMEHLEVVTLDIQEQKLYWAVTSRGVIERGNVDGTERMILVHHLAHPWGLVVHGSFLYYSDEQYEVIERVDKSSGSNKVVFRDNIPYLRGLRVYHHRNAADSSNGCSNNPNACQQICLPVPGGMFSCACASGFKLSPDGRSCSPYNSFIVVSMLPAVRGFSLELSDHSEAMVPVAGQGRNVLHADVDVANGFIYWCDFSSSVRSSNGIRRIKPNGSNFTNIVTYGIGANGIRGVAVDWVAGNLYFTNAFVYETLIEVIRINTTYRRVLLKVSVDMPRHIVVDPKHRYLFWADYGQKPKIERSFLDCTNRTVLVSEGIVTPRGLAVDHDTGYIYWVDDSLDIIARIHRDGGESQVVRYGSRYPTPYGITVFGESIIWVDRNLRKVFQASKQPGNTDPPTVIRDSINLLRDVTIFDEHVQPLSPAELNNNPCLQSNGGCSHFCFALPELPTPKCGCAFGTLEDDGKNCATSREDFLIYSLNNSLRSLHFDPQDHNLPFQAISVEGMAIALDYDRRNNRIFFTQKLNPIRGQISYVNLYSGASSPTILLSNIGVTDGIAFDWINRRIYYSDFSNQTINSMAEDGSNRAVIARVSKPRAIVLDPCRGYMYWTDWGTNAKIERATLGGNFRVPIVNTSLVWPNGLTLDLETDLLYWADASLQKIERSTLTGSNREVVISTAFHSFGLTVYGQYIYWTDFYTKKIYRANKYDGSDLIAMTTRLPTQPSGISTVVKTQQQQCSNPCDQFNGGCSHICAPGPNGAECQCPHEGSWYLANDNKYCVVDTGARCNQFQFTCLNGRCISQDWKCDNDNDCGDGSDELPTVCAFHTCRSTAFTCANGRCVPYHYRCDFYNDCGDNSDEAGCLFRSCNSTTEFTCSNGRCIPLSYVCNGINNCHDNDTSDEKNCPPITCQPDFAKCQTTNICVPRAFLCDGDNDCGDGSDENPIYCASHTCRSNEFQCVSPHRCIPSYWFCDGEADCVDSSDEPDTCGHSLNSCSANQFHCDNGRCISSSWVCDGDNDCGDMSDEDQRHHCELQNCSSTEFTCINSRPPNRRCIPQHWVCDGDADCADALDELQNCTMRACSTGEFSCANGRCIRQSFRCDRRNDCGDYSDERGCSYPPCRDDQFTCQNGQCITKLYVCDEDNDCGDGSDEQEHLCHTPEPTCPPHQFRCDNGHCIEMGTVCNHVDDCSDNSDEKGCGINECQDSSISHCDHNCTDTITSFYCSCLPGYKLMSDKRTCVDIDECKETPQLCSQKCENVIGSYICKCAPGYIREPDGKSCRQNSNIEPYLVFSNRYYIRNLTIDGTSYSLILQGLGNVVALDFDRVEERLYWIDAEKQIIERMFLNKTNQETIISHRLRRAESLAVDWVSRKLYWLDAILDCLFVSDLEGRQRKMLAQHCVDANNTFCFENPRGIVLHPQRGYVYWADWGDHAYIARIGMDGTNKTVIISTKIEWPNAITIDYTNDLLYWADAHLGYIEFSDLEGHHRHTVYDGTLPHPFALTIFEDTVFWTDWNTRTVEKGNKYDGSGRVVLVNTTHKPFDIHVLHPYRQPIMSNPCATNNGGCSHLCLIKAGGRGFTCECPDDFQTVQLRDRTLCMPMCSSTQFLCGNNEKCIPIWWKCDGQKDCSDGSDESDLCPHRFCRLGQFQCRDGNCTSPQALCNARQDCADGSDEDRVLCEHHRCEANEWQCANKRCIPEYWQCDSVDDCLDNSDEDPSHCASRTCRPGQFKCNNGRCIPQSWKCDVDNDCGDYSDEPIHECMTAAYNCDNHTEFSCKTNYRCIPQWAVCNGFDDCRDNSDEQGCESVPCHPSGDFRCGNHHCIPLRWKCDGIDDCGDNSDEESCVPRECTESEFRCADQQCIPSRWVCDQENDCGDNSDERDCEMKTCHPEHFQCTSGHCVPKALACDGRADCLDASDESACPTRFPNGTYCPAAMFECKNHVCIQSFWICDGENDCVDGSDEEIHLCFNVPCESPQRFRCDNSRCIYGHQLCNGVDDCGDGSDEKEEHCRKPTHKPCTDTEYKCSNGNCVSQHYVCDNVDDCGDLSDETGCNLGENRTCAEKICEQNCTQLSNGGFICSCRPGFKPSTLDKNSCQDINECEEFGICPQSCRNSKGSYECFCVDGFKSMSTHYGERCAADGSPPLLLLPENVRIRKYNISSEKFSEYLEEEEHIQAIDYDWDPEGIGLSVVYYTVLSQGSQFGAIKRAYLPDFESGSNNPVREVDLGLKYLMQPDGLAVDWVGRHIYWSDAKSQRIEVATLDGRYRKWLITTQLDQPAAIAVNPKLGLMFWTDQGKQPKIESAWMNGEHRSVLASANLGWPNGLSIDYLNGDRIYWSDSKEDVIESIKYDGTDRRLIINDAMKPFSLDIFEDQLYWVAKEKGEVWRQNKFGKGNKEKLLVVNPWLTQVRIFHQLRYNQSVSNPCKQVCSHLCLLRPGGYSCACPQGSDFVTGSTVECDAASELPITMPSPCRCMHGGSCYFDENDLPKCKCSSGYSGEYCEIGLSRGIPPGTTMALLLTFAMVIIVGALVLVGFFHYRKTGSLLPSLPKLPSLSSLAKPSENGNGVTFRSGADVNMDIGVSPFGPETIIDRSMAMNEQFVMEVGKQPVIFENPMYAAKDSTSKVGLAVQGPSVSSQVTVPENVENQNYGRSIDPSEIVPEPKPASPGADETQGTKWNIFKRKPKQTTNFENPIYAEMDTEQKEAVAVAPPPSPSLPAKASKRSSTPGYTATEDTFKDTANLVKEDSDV

Compound: MGSHIEPGG-C: cortical collecting duct (CCD)-targeting peptide, SEQ ID NO: 52 (MGSHIEPGGC; listed as Homo sapiens)
- Targeting location [1]: PCT and CCD
- Water solubility [2]: Good

- absolute bioavailability [3]: 47.9%
- % of total organ fluorescence accumulation in the intestines ([4]; 3 h): 45.8±14.0%
- % of total organ fluorescence accumulation in the intestines ([4]; 24 h): 37.4±15.5%
- % of total organ fluorescence accumulation in the intestines ([4]; 48 h): 38.5±15.1%
- intestinal localization [5]: localized to the duodenum and ileum
- reduction in transport between the colchicine and wortmannin conditions (Caco-2 cells): No statistically significant reduction
Compound: CCN(CC)c1ccc2c(-c3ccccc3C(=O)O)c3ccc(=[N+](CC)CC)cc-3oc2c1.[Cl-] [free R, Rhodamine B]
- changes in TER (Caco-2 cell monolayers): No changes in TER

Compound: ELRGDRAKL-C: alternative CCD-targeting peptide, SEQ ID NO: 56 (ELRGDRAKLC; listed as Homo sapiens)
- Targeting location [1]: CCD
- Water solubility [2]: Good

- Pearson's R value (colocalization) (megalin (mouse)): 0.48
Compound: 45% PEG2000-(KKEEE)3K micelle (kidney-targeting peptide (KKEEE)3K with added N-terminal cysteine, conjugated to DSPE-PEG(2000)-maleimide)

- solubility (Solubility in MQ): 5 to 20 µg/mL (≈ 5.47 to 21.9 µM)
Compound: CO[C@H]1C[C@@H]2CC[C@@H](C)[C@@](O)(O2)C(=O)C(=O)N2CCCC[C@H]2C(=O)O[C@H]([C@H](C)C[C@@H]2CC[C@@H](O)[C@H](OC)C2)CC(=O)[C@H](C)/C=C(\C)[C@@H](O)[C@@H](OC)C(=O)[C@H](C)C[C@H](C)/C=C/C=C/C=C/1C [Rapamycin]

Compound: KMGGTNHPE-C: cortical collecting duct (CCD)-targeting peptide, SEQ ID NO: 53 (KMGGTNHPEC; listed as Homo sapiens)
- Targeting location [1]: PCT and CCD
- Water solubility [2]: Good

- serum components, electrolytes, and kidney health markers [7]: no significant difference between groups
Compound: CN(C)C(=N)N=C(N)N [free met, metformin]
- patients with gastrointestinal (GI) discomfort [6]: 25%
- patients with complete intolerance for the drug ([6]; listed as met): approximately 5%
- patients with complete intolerance for the drug ([6]; listed as metformin): 5%
- phosphorylated AMPK to total AMPK compared to CS-NP (AMPK): significant increase
- ENaC current [8]: 79.2 μA/cm2

Compound: CKDSPKSSKSIRFIPVST (listed as Homo sapiens)
- Targeting location [1]: Type A
- Water solubility [2]: Good

- Pearson's R value (colocalization) (megalin (mouse)): 0.53
Compound: 45% PEG2000-(EEKKK)3E micelle (peptide (EEKKK)3E with added N-terminal cysteine, conjugated to DSPE-PEG(2000)-maleimide)

Compound: Cc1ccccc1C(=O)Nc1ccc(C(=O)N2CCCC(O)c3cc(Cl)ccc32)c(C)c1 (stereo not drawn) [tolvaptan]
- clinical trial dropout rate [9]: 23%

- Encapsulation efficiency (%) [10, 11]: 87.1 ± 2.0%
- Loading capacity (wt/wt %) [10, 11]: 13.0 ± 0.3 wt/wt %
- Moles drug per mole micelle [10, 11]: 0.1 ± 0.01
- Size (nm) ([10]; drug-loaded micelles, lipid:drug 2:1): 21.0 ± 1.3 nm
- solubility (Solubility in MQ): < 100 µg/mL
Compound: CO[C@H]1C[C@@H]2CC[C@@H](C)[C@@](O)(O2)C(=O)C(=O)N2CCCC[C@H]2C(=O)O[C@H]([C@H](C)C[C@@H]2CC[C@@H](OCCO)[C@H](OC)C2)CC(=O)[C@H](C)/C=C(\C)[C@@H](O)[C@@H](OC)C(=O)[C@H](C)C[C@H](C)/C=C/C=C/C=C/1C [Everolimus]
